Test: Stability of solid forms as relative humidity is varied
Type: physicochemical
Procedure: This material is referred to herein as Form 5.
Water (20 mL) and THF (40 mL) were mixed in a flask, and Compound X (10 g, ca. 91% pure by HPLC) was added with stirring at 25° C. to provide a clear yellow solution. A 20 mg sample of Form 5 (see above) was added as a seed, and the mixture was stirred for 50 mins. THF (140 mL) was then added slowly, over 1 hr and the mixture was stirred for 2 hr more. The suspension was filtered, and the wet cake was washed with cold (<5° C.) water, then dried at 20-25° C. for 11 hrs at 100 mbar pressure, providing 6.6 g of Form 5 trihydrate that was 97.8% pure by HPLC. It appears stable when stored at 25-50% relative humidity, preferably 30-40% RH; at lower or higher relative humidity, it may evolve to different hydrated states as described herein.
Compound X of Form 1 (anhydrate) was exposed to 43% relative humidity for one day or more. The crystalline product appears to be a sesquihydrate (Compound X-1.5 H2O) based on water content determination. Note that Form 5, the trihydrate, under similar conditions would be stable, yet when starting with the anhydrate, it appears to equilibrate as a sequihdyrate under these conditions and remains in that form for at least 14 days when kept at the same relative humidity. This crystalline form produces the XRPD spectrum shown in FIG. 11, and is referred to herein as Form 10. The table below summarizes the main peaks in the XRPD of this sample.
Compound X of Form 5, the trihydrate, was exposed to relative humidity of 22% for about 3 days to provide a crystalline solid characterized as a dihydrate (Compound X-2H2O) based on water content analysis. […] The dihydrate, referred to herein as Form 11, produced the XRPD spectrum shown in FIG. 12: the main peaks in that XRPD spectrum are listed in the following table.
Compound X of Form 5 was exposed to air with a relative humidity of 65% for about 3 days, providing a crystalline material characterized as a tetra-hydrate based on water content analysis. […] The tetrahydrate, referred to herein as Form 12, produced the XRPD spectrum shown in FIG. 13: the main peaks in that XRPD spectrum are listed in the following table.
Note that at 92% relative humidity, Compound X appears to be a mixture of a crystal form characterized as hexahydrate mixed with the tetrahydrate of Form 12. By comparison, the anhydrate (Form 1) preferentially converts to a sesquihydrate as the relative humidity is increased to 43%, and evolves to trihydrate and tetrahydrate at higher relative humidities.

Nc1nc(/C(=N/OC2(C(=O)O)CC2)C(=O)N[C@@H]2C(=O)N(S(=O)(=O)O)[C@@H]2CN2CCOC2=O)cs1 [Form 5]
form change at high relative humidity (RH above 80%): converts to Form 4 within a day
relative humidity at which the form appears stable when stored (storage of Form 5 trihydrate): 25-50%

Nc1nc(/C(=N/OC2(C(=O)O)CC2)C(=O)N[C@@H]2C(=O)N(S(=O)(=O)O)[C@@H]2CN2CCOC2=O)cs1 [Form 10]
time the form remains unchanged (kept at 43% relative humidity): at least 14 days

Nc1nc(/C(=N/OC2(C(=O)O)CC2)C(=O)N[C@@H]2C(=O)N(S(=O)(=O)O)[C@@H]2CN2CCOC2=O)cs1 [Form 12]
form change when relative humidity is reduced (relative humidity reduced to about 40%): readily reverts to the trihydrate (Form 5)
